# Results published in patent US8742141B2, “Inhibition and treatment of prostate cancer metastasis” (Northwestern University, priority 2008, dated 2014).
# Like-named read-outs stand apart in the source and are kept apart here.
# Columns and labels:
# [1] = biological target: T1, MEK4 (Homo sapiens, UniProt P45985); assay: Upstate Biotechnology MEK4 assay system, inhibition of MEK4 kinase activity; format: biochemical; conditions: in vitro
# T1 construct: purchased Upstate Biotechnology
# T1 sequence (P45985 1-399): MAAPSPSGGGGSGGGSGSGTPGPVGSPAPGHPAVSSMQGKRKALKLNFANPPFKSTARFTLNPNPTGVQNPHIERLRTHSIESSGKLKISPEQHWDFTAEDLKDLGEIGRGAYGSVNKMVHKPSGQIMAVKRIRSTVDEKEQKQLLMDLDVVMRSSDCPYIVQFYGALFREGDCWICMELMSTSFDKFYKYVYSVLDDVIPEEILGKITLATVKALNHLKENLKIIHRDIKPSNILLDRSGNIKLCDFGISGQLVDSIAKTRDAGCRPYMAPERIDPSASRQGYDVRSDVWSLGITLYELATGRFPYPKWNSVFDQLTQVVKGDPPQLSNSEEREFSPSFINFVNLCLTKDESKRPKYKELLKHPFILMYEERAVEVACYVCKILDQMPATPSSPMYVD
# [2] = tested on: MEK4; assay: Phosphorylation of MEK4 in vivo (TGFβ stimulated); format: cell-based
# Experimental: Phosphorylation by MEK4 (FIG. 4A) and phosphorylation of MEK4 (FIG. 7) was assayed. The Upstate Biotechnology MEK4 assay system was used to measure inhibition of MEK4 activity. Phosphorylation of MEK4 in vivo was assayed using standard techniques.
# [3] = tested on: PCa cell lines (PC3, PC3-M, 1532CPTX, 1542CPTX, 1532NPTX, 1542NPTX); assay: Cell invasion assay of PCa cell lines (Examples 2 and 3); format: cell-based, human
# Text: MEK expression was examined in six human prostate cancer (PCa) cell lines: PC3 and PC3-M metastatic PCa cells, 1532CPTX and 1542 CPTX immortalized localized PCa cells, and 1532 NPTX and 1542 NPTX immortalized normal epithelial cells. The last four cell lines are primary cells, are HPV transformed, and thus represent early stages of prostate carcinogenesis. They provide representative members of the metastatic phenotype, as well as members of early state phenotypes. […] All six cell lines also secrete as well as respond to TGFβ, a regulator of cell motility that plays a role in PCa cell invasiveness.
# Assays were conducted using methods as described in Craft et al. (2008, Mol. Pharmocol., 73(1):235-242; herein incorporated by reference in its entirety).
# [4] = tested on: MMP-2; assay: Phase 2 trial, MMP-2 transcript by qRT/PCR in LCM normal prostate epithelial cells; format: in vivo, human; conditions: 2 mg genistein/kg/day
# Experimental: Of 38 subjects completing the study, MMP-2 expression was analyzed in tissue from 12 genistein-treated subjects and 12 controls. […] MMP-2 expression was measured by removing normal prostate epithelial cells from intact fresh frozen prostate tissue by laser capture microdissection (LCM), isolating RNA, treating with DNase, assessing RNA quality by capillary electrophoresis, and measuring MMP-2 transcript levels by qRT/PCR (normalizing to GAPDH), using exon spanning primers.
# [5] = tested on: prostate epithelial cells; assay: Phase 2 trial, nuclear morphology of prostate epithelial cells; format: in vivo, human; conditions: genistein treated men vs controls
# Text: Though morphologically “normal,” these cells are present within organs with PCa, have pre-cancer molecular changes, and represent an appropriate target cell type for therapy that inhibits a process associated with PCa progression, in this case, development of the metastatic phenotype. […] These findings are consistent with its effects in vitro and in mice.
# [6] = Phase 2 trial, serious adverse events; format: in vivo, human; conditions: grade >/= 2 clinical toxicity, NCI Common Toxicity Criteria v 2.0; 12 subjects
# [7] = tested on: ER promoter-luciferase reporter vector construct; assay: ER promoter-luciferase reporter assay in MCF-7 cells; format: cell-based, human; conditions: 10 μM
# Experimental: The genes were: TFF1 (trefoil factor 1; also known as pS2), PGR (progesterone receptor), and CPSD (cathepsin D). Gene expression was measured by isolating RNA, and performing real time quantitative reverse transcription/polymerase chain reaction (qRT/PCR), using exon spanning primers (purchased from Applied Biosystems). The expression of GAPDH was also measured, and used to normalize the expression of ER responsive genes. Data below are the mean±SD of a single experiment, performed in duplicate. […] Additionally, the ability of compound 46 to activate an ER promoter-luciferase reporter vector construct after transient transfection of the human ER positive breast cancer cell line, MCF-7, was evaluated (FIG. 31). […] “No associated control cells” were transfected with an identical vector construct that lacked the estrogen response element, i.e., noERE.
# [8] = cited from earlier work
# [9] = tested on: human PC3-M PCa cells; assay: Orthotopic PC3-M implantation metastasis model in athymic mice
# [10] = 0, 100, 250 mg genistein/kg chow
# [11] = Western blot, primary tumor tissue
structure (smiles),measurement,setting,value
O=c1c(-c2ccc(O)cc2)coc2cc(O)cc(O)c12 [genistein],phosphorylation of JNK3 by MEK4,[1],inhibits phosphorylation of JNK3 by MEK4
same,TGFβ increased MEK4 phosphorylation,[2],does not block such phosphorylation
same,cell invasion,[3]; early and late stage PCa cells,inhibits invasion of both early and late stage PCa cells
same,effect of genistein on invasiveness when MEK4 expression suppressed,[3]; in the presence of siMEK4,abrogated
same,"MMP-2 transcript level, % of controls (mean±SEM)",[4],24±4.1%
same,increase in nuclear length,[5],1.5±0.7%
same,increase in nuclear width,[5],2.7±0.7%
same,increase in nuclear area,[5]; only a trend,2.0±1.0%
same,"serious adverse events, number",[6],0
same,luciferase activity,[7],induced luciferase activity
same,blood concentration of total genistein,100 mg genistein/kg chow cohort,0.29 ± 0.072 µM
same,blood concentration of total genistein,250 mg genistein/kg chow cohort,1.307 ± 0.507 µM
same,tolerability,"[8]; 2 to 8 mg genistein/kg, men with prostate cancer",well tolerated
same,peak concentration of free genistein,[8]; 2 to 8 mg genistein/kg,66 to 170 nM
same,peak concentration of total genistein,[8]; 2 to 8 mg genistein/kg,4.3 to 16.3 µM
same,clearance,[8]; dependence on body mass,not altered by body mass
same,blood genistein conjugated,[8]; in vivo,> 90%
same,halflife,[8]; in vivo,15 to 22 h
same,metastasis,[9]; [10],decreased metastasis
same,tumor volume,[9]; [10],not tumor volume
same,level of total p38 MAP kinase protein,[9]; [11],increased the level of total p38 MAP kinase protein
same,p38 MAP kinase phosphorylation,[9]; [11],decreased its phosphorylation
same,weight of mice,[9]; between cohorts,no difference
